Source: US20210087565A1, “ANTISENSE ANTIBIOTICS AND BACTERIAL SECRETION BASED DELIVERY SYSTEM TO ELIMINATE DRUG-RESISTANT BACTERIA” (priority 2018, published 2021)
“Also recorded” adds a separate entry of the source.

How the values were obtained:
[1] = system: E. coli MG1655; test: Growth curves and CFU of lab strain treated with PNA; format: cell-based, Escherichia coli; conditions: 10 μM
Description: FIG. 7. Dose response of various PNA. Optical density of a 1:10,000 dilution of MG6155 from overnight liquid culture, treated with various concentrations of antisense inhibitors was measured for 3 biological replicates with error bars as standard deviations. Normalized growth was measured as the optical density at 22 hours normalized to no treatment. An asterisk (*) indicates a significant difference (p<0.05) as compared to no treatment for each inhibitor.
FIG. 8. Antisense Inhibitors targeting novel pathways can inhibit growth of E. coli. z. (A) Growth curves of E. coli MG1655 from a 1:10,000 dilution from an overnight culture, normalized to time t=0 with 10 μM of respective antisense inhibitor. […] (B) Colony forming units per milliliter of MG1655 E. coli for respective treatment as a function of time. The CFU/mL at t=0 represents the starting culture after a 1:100,000 dilution from overnight culture. […] Significance is measured as p<0.05.
Bacterial Cell culture: The clinical isolates were obtained from the lab of Nancy Madinger at the University of Colorado Anschutz campus. Clinical isolates were grown in Cation Adjusted Mueller Hinton broth (CAMHB) (Becton, Dickinson and Company 212322) at 37° C. with 225 rpm shaking or on solid CAMHB with 1.5% agar at 37° C. Clinical isolates were maintained as freezer stocks in 90% CAMHB, 10% glycerol at −80° C. Freezer stocks were streaked out onto solid CAMHB and incubated for 16 h to produce single colonies prior to experiments. For each biological replicate, a single colony was picked from solid media and grown for 16 h in liquid CAMHB prior to experiments. Non-clinical isolates, such as E. coli MG1655 (ATCC700926) and Salmonella entorica serovar typhimurium SL1344, were cultured in liquid 2% lysogeny broth (LB) or on 2% LB with 1.5% agar for solid plates. S. typhimurium cultures were supplemented with 30 μg/mL streptomycin and SL1344 strains containing plasmids pFPV (SL1344-mCherry) or pRG1 modified with a lacIq promoter (SL1344-Holin) were supplemented with 100 μg/mL ampicillin. Freezer stocks were stored in 60% LB broth, 40% glycerol at −80° C. Freezer stocks were streaked out onto solid LB and incubated for 16 h to produce single colonies before experiments. For biological replicates, single colonies were started in liquid LB and grown for 16 hours prior to experiments. E. coli MG1655 PNA growth experiments were carried out in M9 media (1×M9 minimal media salts solution (MP Biomedicals), 2.0 mM MgSO4, and 0.1 mM CaCl2 in sterile water) with 0.4% glucose.
PNA growth assay: Biological replicates were diluted 1:10,000 into treatment condition in 384-well plates and measured for 24 h in a Tecan GENios at 562 nm with a bandwidth of 35 nm. Media absorbance blanks were subtracted from data prior to analysis. […]

[2] = system: 60 nucleotide single-stranded DNA fragments containing the complementation site; test: Electrophoretic mobility shift assay (EMSA); format: binding; conditions: PNA 1 μM, DNA fragments 500 nM; complementary vs nonsense DNA
Description: FIG. 5. PNA binding to off-target start codons. (A) The set of potential PNA candidates identified from the Keio collection were screened against the entire E. coli MG1655 genome to identify the distribution of off-target alignments when allowing for zero base mismatches in the alignment (left) and one base mismatch (right). In the 0-basepair mismatch analysis, all chosen PNAs that were tested had no other start codon alignments within the genome, whereas in the one base mismatch alignment, the number of start codon alignments distribute across zero to five alignments. (B) Electrophoretic mobility shift assay (EMSA) depicting 60 nucleotide single-stranded DNA fragments containing the complementation site for their corresponding PNA. Nonsense DNA was a random 60 nucleotide single-stranded DNA sequence that contained no complementation sites for PNA binding. […] Bands corresponding to PNA+complementary DNA are shifted above the unbound DNA (red triangles). Corresponding PNA+nonsense DNA bands are seen in lanes 3 and 5, with lane 3 having slight cross-over bands coming from lane 2. All lanes are from the same gel.
Gel Shift Mobility Assay: Synthetic DNA oligonucleotides that are 57-60 nucleotides in length were incubated with their respective PNA binding site at 37° C. overnight. The concentration of the DNA fragments was held at 500 nM, while the PNA was always in excess at 1 μM. […]

Substance | effect on growth (in words) [1] | colony forming units per milliliter ([1]; within 2 hours of treatment) [CFU/mL] | binding specificity by EMSA (in words) [2]
α-rpsD: 12-mer antisense PNA AGAAAATGGCAA (SEQ ID NO. 19) targeting rpsD, conjugated to (KFF)3K cell penetrating peptide via AEEA-linker (all peptide nucleic acid (PNA); (KFF)3K cell-penetrating peptide attached via AEEA linker) | effective in killing; also recorded: complete suppression of cell growth | 0 | showed specificity to their targets; also recorded: show binding specificity to their target
α-lexA: 12-mer antisense PNA cGGAATGAAAGC (SEQ ID NO. 17) targeting lexA, conjugated to (KFF)3K cell penetrating peptide via AEEA-linker (antisense CGGAATGAAAGC; all peptide nucleic acid (PNA); (KFF)3K cell-penetrating peptide attached via AEEA linker) | complete suppression of cell growth |  | showed specificity to their targets; also recorded: show binding specificity to their target
